Reference: ChEMBL document CHEMBL1201862, “PubChem BioAssay data set” (2004)
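Method: 48-hour compound exposure of cells in 96-well plates, five concentrations, linear interpolation of endpoints. GI50 marks 50% less growth.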 The source made the active and inactive calls. Rule as the data show it: active = GI50 up to about 1.1 µM and inactive = higher.

Assays:
Experiment in all cases: NCI tumour cell line growth inhibition, 48 h
[1] = tested on: OVCAR-8
[2] = tested on: HT-29
[3] = tested on: RXF 393
[4] = tested on: NCI/ADR-RES
[5] = tested on: KM12
[6] = tested on: HCT-15
[7] = tested on: TK-10
[8] = tested on: SK-MEL-28
[9] = tested on: EKVX
[10] = tested on: SF-295
[11] = tested on: HOP-62
[12] = tested on: SK-MEL-5
[13] = tested on: UACC-257
[14] = tested on: A549
[15] = tested on: COLO 205
[16] = tested on: SNB-19
[17] = tested on: OVCAR-3
[18] = tested on: DU-145
[19] = tested on: SW-620
[20] = tested on: HOP-92

In the case of `Cc1cccc(C(O)c2cccnc2)c1O` (configuration not stated), the GI50 [1] is reported as > 100 µM (inactive), the GI50 [2] is reported as > 100 µM (inactive) and the GI50 [3] is reported as > 100 µM (inactive). For the same compound, the GI50 [4] was > 100 µM (inactive), the GI50 [5] was > 100 µM (inactive) and the GI50 [6] was over 100 µM. The GI50 [7] was > 100 µM (inactive), the GI50 [8] was > 100 µM (inactive) and the GI50 [9] was > 100 µM (inactive). For the same compound, the GI50 [10] was > 100 µM (inactive), the GI50 [11] was > 100 µM (inactive) and the GI50 [12] was 76.4 µM (inactive). The GI50 [13] was 66.7 µM (inactive), the GI50 [14] was > 100 µM (inactive) and the GI50 [15] was > 100 µM (inactive). The GI50 [16] was > 100 µM (inactive), the GI50 [17] was > 100 µM (inactive) and the GI50 [18] was > 100 µM (inactive). The GI50 [19] was > 100 µM (inactive).
With `CC(C)=CCC(OC(=O)C=C(C)C)c1cc(O)c2c(c1O)C(=O)C=CC2=O` (configuration not stated) the GI50 [1] was 0.33 µM (active), the GI50 [2] was 1.67 µM (inactive) and the GI50 [3] was 0.218 µM (active). The GI50 [4] was 0.406 µM (active), the GI50 [5] was 2.42 µM (inactive) and the GI50 [6] was 0.398 µM. The GI50 [8] was 0.853 µM (active), the GI50 [9] was 0.933 µM (active) and the GI50 [10] was 2.95 µM (inactive). The GI50 [20] was 0.469 µM (active), the GI50 [11] was 12.8 µM (inactive) and the GI50 [12] was 0.883 µM (active). For the same compound, the GI50 [13] was 0.753 µM (active), the GI50 [14] was 5.04 µM (inactive) and the GI50 [15] was 0.382 µM (active). The GI50 [16] was 7.46 µM (inactive), the GI50 [17] was 0.839 µM (active) and the GI50 [19] was 0.267 µM (active).
For `O=C(c1ccccc1)C1C(c2ccccc2)N1S(=O)(=O)c1ccccc1` (configuration not stated), the GI50 [1] was > 100 µM (inactive), the GI50 [2] was > 100 µM (inactive) and the GI50 [3] was > 100 µM (inactive). For the same compound, the GI50 [4] was > 100 µM (inactive), the GI50 [5] was > 100 µM (inactive) and the GI50 [6] was over 100 µM. The GI50 [7] was > 100 µM (inactive), the GI50 [8] was > 100 µM (inactive) and the GI50 [9] was > 100 µM (inactive). The GI50 [10] was > 100 µM (inactive), the GI50 [11] was > 100 µM (inactive) and the GI50 [12] was > 100 µM (inactive). For the same compound, the GI50 [14] was > 100 µM (inactive), the GI50 [15] was > 100 µM (inactive) and the GI50 [17] was > 100 µM (inactive). The GI50 [18] was > 100 µM (inactive) and the GI50 [19] was > 100 µM (inactive).
In the case of `Nc1nnc2ccc(Cl)cc2[n+]1[O-]`, the GI50 [1] is reported as 24.9 µM (inactive), the GI50 [2] is reported as 42.4 µM (inactive) and the GI50 [3] is reported as 29.8 µM (inactive). For the same compound, the GI50 [4] was 40.1 µM (inactive), the GI50 [5] was > 100 µM (inactive) and the GI50 [6] was 36.2 µM. The GI50 [7] was > 100 µM (inactive), the GI50 [8] was 62.5 µM (inactive) and the GI50 [9] was 47.6 µM (inactive). The GI50 [10] was > 100 µM (inactive), the GI50 [11] was > 100 µM (inactive) and the GI50 [12] was 31 µM (inactive). For the same compound, the GI50 [13] was 94 µM (inactive), the GI50 [15] was 24.4 µM (inactive) and the GI50 [16] was > 100 µM (inactive). The GI50 [18] was > 100 µM (inactive) and the GI50 [19] was 36.5 µM (inactive).
With `O=c1c(-c2ccccc2)c(SCCN2CCCCCC2)n(-c2ccccc2)c(=S)n1-c1ccccc1` the GI50 [1] was 80 µM (inactive), the GI50 [3] was 17.2 µM (inactive) and the GI50 [4] was 68.2 µM (inactive). For the same compound, the GI50 [5] was 27.3 µM (inactive), the GI50 [6] was 51.3 µM and the GI50 [7] was 48.4 µM (inactive). The GI50 [8] was > 100 µM (inactive), the GI50 [9] was 17.7 µM (inactive) and the GI50 [10] was 83.9 µM (inactive). For the same compound, the GI50 [20] was 15.2 µM (inactive), the GI50 [11] was 46.6 µM (inactive) and the GI50 [12] was 23.2 µM (inactive). The GI50 [13] was 86.3 µM (inactive), the GI50 [15] was 30.4 µM (inactive) and the GI50 [17] was 32.7 µM (inactive). For the same compound, the GI50 [18] was 23.6 µM (inactive) and the GI50 [19] was 37.2 µM (inactive).
`COc1cc(/N=N\c2ccc(OC)c(S(=O)(=O)O)c2)c(C)cc1/N=N\c1ccc(/C=C/c2ccc(/N=[N+](/[O-])c3ccc(/C=C/c4ccc(/N=N/c5cc(C)c(/N=N\c6ccc(OC)c(S(=O)(=O)O)c6)cc5OC)cc4S(=O)(=O)O)c(S(=O)(=O)O)c3)cc2S(=O)(=O)O)c(S(=O)(=O)O)c1` was tested, and the GI50 [1] was > 100 µM (inactive), the GI50 [2] was > 100 µM (inactive) and the GI50 [3] was > 100 µM (inactive). The GI50 [4] was > 100 µM (inactive), the GI50 [5] was > 100 µM (inactive) and the GI50 [6] was over 100 µM. The GI50 [8] was > 100 µM (inactive), the GI50 [9] was > 100 µM (inactive) and the GI50 [10] was > 100 µM (inactive). For the same compound, the GI50 [20] was > 75.2 µM (inactive), the GI50 [11] was > 100 µM (inactive) and the GI50 [12] was > 100 µM (inactive). The GI50 [13] was > 100 µM (inactive), the GI50 [14] was > 100 µM (inactive) and the GI50 [15] was > 100 µM (inactive). For the same compound, the GI50 [16] was > 100 µM (inactive), the GI50 [17] was > 100 µM (inactive) and the GI50 [19] was > 100 µM (inactive).
`Cc1ccc(C(=O)Nc2ccc(S(=O)(=O)O)c3cc(S(=O)(=O)O)cc(S(=O)(=O)O)c23)cc1N` was tested, and the GI50 [1] was > 100 µM (inactive), the GI50 [2] was > 100 µM (inactive) and the GI50 [3] was > 100 µM (inactive). For the same compound, the GI50 [4] was > 100 µM (inactive), the GI50 [5] was > 100 µM (inactive) and the GI50 [6] was over 100 µM. For the same compound, the GI50 [7] was > 100 µM (inactive), the GI50 [8] was > 100 µM (inactive) and the GI50 [9] was > 100 µM (inactive). For the same compound, the GI50 [10] was 2.75 µM (inactive), the GI50 [11] was > 100 µM (inactive) and the GI50 [12] was > 100 µM (inactive). For the same compound, the GI50 [13] was > 100 µM (inactive), the GI50 [15] was > 100 µM (inactive) and the GI50 [16] was > 100 µM (inactive). The GI50 [17] was > 100 µM (inactive), the GI50 [18] was > 100 µM (inactive) and the GI50 [19] was > 100 µM (inactive).
For `Cc1ccc(NC(=O)S(N)(c2ccc(C)cc2)[N+](=O)[O-])cc1` (configuration not stated), the GI50 [1] was > 100 µM (inactive), the GI50 [2] was > 100 µM (inactive) and the GI50 [3] was > 100 µM (inactive). The GI50 [4] was > 100 µM (inactive), the GI50 [5] was > 100 µM (inactive) and the GI50 [6] was over 100 µM. The GI50 [7] was > 100 µM (inactive), the GI50 [8] was > 100 µM (inactive) and the GI50 [10] was > 100 µM (inactive). The GI50 [20] was > 100 µM (inactive), the GI50 [11] was > 100 µM (inactive) and the GI50 [12] was > 100 µM (inactive). The GI50 [13] was > 100 µM (inactive), the GI50 [15] was > 100 µM (inactive) and the GI50 [16] was > 100 µM (inactive). The GI50 [17] was > 100 µM (inactive), the GI50 [18] was 89.7 µM (inactive) and the GI50 [19] was > 100 µM (inactive).
